Results published in patent US20260200903A1, “PHARMACEUTICAL COMPOSITION FOR AMELIORATING MALIGNANT DISEASES” (KINKI UNIVERSITY, priority 2020, published 2026).

Tests used:
Format in all cases: cell-based
[1] = tested on: L363 cells (myeloma cell line); assay: Cell death inducing effect on L363 cells, trypan blue staining; conditions: Homo sapiens, L-363, cell viability
Description: (§1) L363 cells (myeloma cell line) were cultured under 5% CO2 at 37° C. The culture medium used RPMI-1640 medium with 100 μg/mL penicillin, 100 U/mL streptomycin and fetal bovine serum. L363 cells were seeded into 96-well plates and incubated with each concentration of the compounds was added, and cell viability was determined by the trypan blue staining.
(§2) For controls, only 0.5% DMSO (diluted in PBS) used to dissolve the compounds was added. For each concentration, each bar line is indicated by an arrow with the sign “n, a, 1, 2, 3, 4, 5, 6, 7, 8, 9, 10, 11, 12” from left to right. The “1, 3, 5, 7, 9, 11” are omitted from the graph, but the sign “1” shall be indicated by an arrow between the signs “a” and “2”, the sign “3” between the signs “2” and “4”, and other odd numbers shall likewise be indicated by arrows between even numbers before and after.
(§3) The sign “n” is the norathyriol (formula (n)) administration group, the sign “a” is the mangiferin 8a (formula (a)) administration group, the sign “1” is the yk-7 (formula (1)) administration group, the sign “2” is the yk-8-1 (formula (2)) administration group, the sign “3” is the yk-8-3 (formula (3)) administration group, the sign “4” is the M7 (formula (4)) administration group, the sign “5” is the M9 (formula (5)) administration group, the sign “6” is the M11 (formula (6)) administration group, the sign “7” is the M12 (formula (7)) administration group, the sign “8” is the M14 (formula (8)) administration group, the sign “9” is the M15 (formula (9)) administration group, the sign “10” is the M16 (formula (10)) administration group, the sign “11” is the M18 (formula (11)) administration group, the sign “12” is the M19 (formula (12)) administration group, respectively. The IC50 values for each compound is also listed in the upper right corner of the figure.

[2] = tested on: SU-DHL-4 cells (diffuse large B-cell lymphoma); assay: Cell death inducing effect on SU-DHL-4 cells, trypan blue staining; conditions: Homo sapiens; SU-DHL-4 (DLBCL), cell viability
Description: SU-DHL-4 cells (diffuse large B-cell lymphoma) were cultured under 5% CO2 at 37° C.
The culture medium used RPMI-1640 medium with 100 μg/mL penicillin, 100 U/mL streptomycin and fetal bovine serum. SU-DHL-4 cells were seeded into 96-well plates and incubated with each concentration of the compounds was added, and cell viability was determined by the trypan blue staining.
as §2, §3

[3] = tested on: Raji cells (burkitt lymphoma cell line); assay: Cell death inducing effect on Raji cells, trypan blue staining; conditions: Homo sapiens; Raji (Burkkit lymphoma), cell viability
Description: as §1, with “Raji” for “L363”, “(burkitt lymphoma” for “(myeloma”
as §2, §3

[4] = tested on: NF-κB p52 nuclear; assay: Immunoblotting of NF-κB p52 nuclear in KMS-28BM cells; conditions: nuclear fraction, 72 h, same concentrations (0.005-100 μM)
Description: (§4) Immunoblotting was performed on KMS-28BM cells to investigate the inhibitory effect of each compound administration on NIK inhibition and the activation of IKK, NF-κB p52, and NF-κB p65, which are downstream signals of NIK. As a result, inhibition of NIK activation, inhibition of IKK activity, and inhibition of nuclear translocation of NF-κB p52 and NF-κB p65 were observed (FIG. 15 and FIG. 16).
(§5) As a control, compounds untreated KMS-28BM cells were seeded in 150 cm^2 flasks and incubated for 72 h at 37° C. and 5% CO2. KMS-28BM cells were seeded into 150 cm^2 flasks and pre-cultured for 24 h. After incubation, KMS-28BM cells were treated with […], 1 μM norathyriol, 0.5 μM M7 (formula (4)), 1 μM M8 (mangiferin 8a: listed in duplicate), 0.2 μM M9 (formula (5)), 5 μM yk-7 (formula (1)), 0.5 μM yk-8-3 (formula (3)) and 100 μM yk-8-1 (formula (2)) at final concentrations, and incubated for 72 h at 37° C. and 5% CO2. In addition, KMS-28BM cells were also treated with 0.5 μM M19 (formula (12)), 0.5 μM M18 (formula (11)), 0.005 μM M16 (formula (10)), […] (formula (9)), 0.005 μM M14 (formula (8)), 0.05 μM M12 (formula (7)) and […] (formula (6)) at the final concentrations, and incubated for 72 h at 37° C. and 5% CO2. Proteins were extracted from these cell suspensions with cell lysate and used as samples.
(§6) The nucleus and cytoplasmic substrate were separated from the cells using the ProteoExtract (registered trademark) Subcellular Proteome Extraction Kit from Merck Ltd. to extract the cytoplasmic and nuclear fractions.
(§7) After SDS-PAGE, each sample was transferred to a PVDF membrane and examined using anti-phospho-NIK, anti-NIK, anti-phospho-IKK, anti-IKK, anti-P-actin, anti-NF-κB p52 and anti-NF-κB p65 antibody, and anti-Lamin antibody.
(§8) The antibody species is indicated in the vertical direction. Specifically, for anti-phospho-NIK antibody, “Phospho-NIK” was used, for anti-NIK antibody, “NIK” was used, for anti-phospho-IKK antibody, “Phospho-IKK” was used, for anti-IKK antibody, “IKK” was used, for anti-p-actin antibody, “p-actin” was used, for anti-NF-κB p52 antibody, “NF-κB p52 nuclear” was used, for anti-NF-κB p65 antibody, “NF-κB p65 nuclear” was used, and for anti-Lamin antibody, “Lamin” was used.

[5] = tested on: RR1 cells (rituximab-resistant burkitt lymphoma cell line); assay: Cell death inducing effect on RR1 cells, trypan blue staining; conditions: RR1 (Burkkit lymphoma; rituximab resistance), cell viability
Description: Raji cells, a burkitt lymphoma cell line, were modified to be rituximab-resistant and named RR1 cells.
RR1 cells (rituximab-resistant burkitt lymphoma cell line) were cultured under 5% CO2 at 37° C. The culture medium used RPMI-1640 medium with 100 μg/mL penicillin, 100 U/mL streptomycin and fetal bovine serum. RR-1 cells were seeded into 96-well plates and incubated with each concentration of the compounds was added, and cell viability was determined by the trypan blue staining.
as §2, §3

[6] = tested on: phospho-IKK; assay: Immunoblotting of phospho-IKK in KMS-28BM cells; conditions: 72 h, vs control, same concentrations as for phospho-NIK (0.005-100 μM)
Description: as §4, §5, §6, §7, §8

CCCCC(=O)OC[C@H]1O[C@@H](c2c(O)cc3oc4cc(O)c(O)cc4c(=O)c3c2O)[C@H](OC(=O)CCCC)[C@@H](OC(=O)CCCC)[C@@H]1OC(=O)CCCC [yk-7, 2′,3′,4′,6′-tetra-O-valerylmangiferin]
IC50 [1]: 5700 nM
IC50 [2]: 288 nM
IC50 [3]: 383 nM
NF-κB p52 nuclear [4]: decreased
IC50 [5]: 42 nM
phospho-IKK band density (anti-phospho-IKK antibody) [6]: decrease in band density
